PubChem BioAssay AID270 (DTP/NCI, 2004)
Inconclusive results are not listed.

Test system: BDF1 mice, s.c. Lewis lung carcinoma, T/C %
Assay: NCI In Vivo Anticancer Drug Screen. Data for tumor model Lewis Lung Carcinoma (subcutaneous) in B6D2F1 (BDF1) mice
How it was run: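 Tumor-bearing mice were treated with test compound, and either survival or tumor size was recorded. Values are the treated-group measurement divided by that of the vehicle-treated control group.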

In the case of `COc1cc2c(c(OC)c1OC)-c1ccc(OC)c(=O)cc1[C@@H](NC(C)=O)CC2`, the T/C (endpoint: mean tumor weight, dose: 0.06 mg/kg/injection, schedule: Q01DX011 (ip), vehicle: saline, higher = larger tumour) is reported as 65 % of control, the T/C (endpoint: mean tumor weight, dose: 0.12 mg/kg/injection, schedule: Q01DX011 (ip), vehicle: saline, higher = larger tumour) is reported as 61 % of control and the T/C (endpoint: mean tumor weight, dose: 0.25 mg/kg/injection, schedule: Q01DX011 (ip), vehicle: saline, higher = larger tumour) is reported as 46 % of control. For the same compound, the T/C (endpoint: median survival time, dose: 0.13 mg/kg/injection, schedule: Q01DX009 (ip), vehicle: saline, higher = longer survival) was 100 % of control, the T/C (endpoint: median survival time, dose: 0.25 mg/kg/injection, schedule: Q01DX009 (ip), vehicle: saline, higher = longer survival) was 98 % of control and the T/C (endpoint: median survival time, dose: 0.5 mg/kg/injection, schedule: Q01DX009 (ip), vehicle: saline, higher = longer survival) was 99 % of control. For the same compound, the T/C (endpoint: median survival time, dose: 63.0 micrograms/kg/injection, schedule: Q01DX009 (ip), vehicle: saline, higher = longer survival) was 103 % of control, the T/C (endpoint: median survival time, dose: 125.0 micrograms/kg/injection, schedule: Q01DX009 (ip), vehicle: saline, higher = longer survival) was 106 % of control and the T/C (endpoint: median survival time, dose: 250.0 micrograms/kg/injection, schedule: Q01DX009 (ip), vehicle: saline, higher = longer survival) was 108 % of control. For the same compound, the T/C (endpoint: median survival time, dose: 500.0 micrograms/kg/injection, schedule: Q01DX009 (ip), vehicle: saline, higher = longer survival) was 108 % of control and the T/C (endpoint: median survival time, dose: 1000.0 micrograms/kg/injection, schedule: Q01DX009 (ip), vehicle: saline, higher = longer survival) was 91 % of control.

`O` was tested, and the T/C (endpoint: median survival time, dose: 100.0 mg/kg/injection, schedule: Q02DX009 (ip), vehicle: saline, higher = longer survival) was 91 % of control, the T/C (endpoint: median survival time, dose: 200.0 mg/kg/injection, schedule: Q02DX009 (ip), vehicle: saline, higher = longer survival) was 110 % of control and the T/C (endpoint: median survival time, dose: 600.0 mg/kg/injection, schedule: Q02DX009 (ip), vehicle: saline, higher = longer survival) was 94 % of control.

With `O=C1CCCC2C3CC(CN12)C1CCCCN1C3` (stereo not drawn) the T/C (endpoint: mean tumor weight, dose: 22.0 mg/kg/injection, schedule: Q01DX011 (ip), vehicle: carboxymethylcellulose (CMC), higher = larger tumour) was 113 % of control, the T/C (endpoint: mean tumor weight, dose: 33.0 mg/kg/injection, schedule: Q01DX011 (ip), vehicle: carboxymethylcellulose (CMC), higher = larger tumour) was 59 % of control and the T/C (endpoint: mean tumor weight, dose: 50.0 mg/kg/injection, schedule: Q01DX011 (ip), vehicle: carboxymethylcellulose (CMC), higher = larger tumour) was 78 % of control. For the same compound, the T/C (endpoint: mean tumor weight, dose: 75.0 mg/kg/injection, schedule: Q01DX011 (ip), vehicle: carboxymethylcellulose (CMC), higher = larger tumour) was 89 % of control.

`COc1ccc2c(=O)cc(-c3ccccc3)n(C)c2c1` was tested, and the T/C (endpoint: mean tumor weight, dose: 50.0 mg/kg/injection, schedule: Q01DX011 (ip), vehicle: saline, higher = larger tumour) was 109 % of control, the T/C (endpoint: mean tumor weight, dose: 100.0 mg/kg/injection, schedule: Q01DX011 (ip), vehicle: saline, higher = larger tumour) was 83 % of control and the T/C (endpoint: mean tumor weight, dose: 200.0 mg/kg/injection, schedule: Q01DX011 (ip), vehicle: saline, higher = larger tumour) was 79 % of control.

For `O=C(O)C(O)C(O)C1[O][Sb][O]C1CO` (stereo not drawn), the T/C (endpoint: median survival time, dose: 50.0 mg/kg/injection, schedule: Q01DX009 (ip), vehicle: saline, higher = longer survival) was 104 % of control and the T/C (endpoint: median survival time, dose: 100.0 mg/kg/injection, schedule: Q01DX009 (ip), vehicle: saline, higher = longer survival) was 102 % of control.

`CCN(CC)CCNc1ccc([N+](=O)[O-])c2sc3ccccc3c(=O)c12` was tested, and the T/C (endpoint: mean tumor weight, dose: 12.5 mg/kg/injection, schedule: Q01DX011 (ip), vehicle: other, higher = larger tumour) was 88 % of control, the T/C (endpoint: mean tumor weight, dose: 25.0 mg/kg/injection, schedule: Q01DX011 (ip), vehicle: other, higher = larger tumour) was 102 % of control and the T/C (endpoint: mean tumor weight, dose: 50.0 mg/kg/injection, schedule: Q01DX011 (ip), vehicle: other, higher = larger tumour) was 84 % of control.

In the case of `CC(C)=CCC1=C(O)c2ccccc2C(=O)C1=O`, the T/C (endpoint: mean tumor weight, dose: 45.0 mg/kg/injection, schedule: Q01DX011 (ip), vehicle: water, higher = larger tumour) is reported as 71 % of control, the T/C (endpoint: mean tumor weight, dose: 67.0 mg/kg/injection, schedule: Q01DX011 (ip), vehicle: water, higher = larger tumour) is reported as 85 % of control and the T/C (endpoint: mean tumor weight, dose: 100.0 mg/kg/injection, schedule: Q01DX011 (ip), vehicle: water, higher = larger tumour) is reported as 93 % of control.

In the case of `CCOC(=O)C1=NNC(=O)C1`, the T/C (endpoint: mean tumor weight, dose: 222.0 mg/kg/injection, schedule: Q01DX011 (ip), vehicle: other, higher = larger tumour) is reported as 119 % of control, the T/C (endpoint: mean tumor weight, dose: 333.0 mg/kg/injection, schedule: Q01DX011 (ip), vehicle: other, higher = larger tumour) is reported as 118 % of control and the T/C (endpoint: mean tumor weight, dose: 500.0 mg/kg/injection, schedule: Q01DX011 (ip), vehicle: other, higher = larger tumour) is reported as 75 % of control. For the same compound, the T/C (endpoint: mean tumor weight, dose: 750.0 mg/kg/injection, schedule: Q01DX011 (ip), vehicle: other, higher = larger tumour) was 108 % of control.

With `COc1ccccc1-c1cc(=O)c2ccc(OC)c(OC)c2o1` the T/C (endpoint: mean tumor weight, dose: 18.8 mg/kg/injection, schedule: Q01DX010 (ip), vehicle: saline, higher = larger tumour) was 99 % of control, the T/C (endpoint: mean tumor weight, dose: 37.5 mg/kg/injection, schedule: Q01DX010 (ip), vehicle: saline, higher = larger tumour) was 81 % of control and the T/C (endpoint: mean tumor weight, dose: 75.0 mg/kg/injection, schedule: Q01DX010 (ip), vehicle: saline, higher = larger tumour) was 108 % of control. For the same compound, the T/C (endpoint: mean tumor weight, dose: 150.0 mg/kg/injection, schedule: Q01DX010 (ip), vehicle: saline, higher = larger tumour) was 76 % of control.

In the case of `Oc1ccccc1/C=N/NC(=S)NC1CC2C=CC1C2` (stereo not drawn), the T/C (endpoint: median survival time, dose: 12.5 mg/kg/injection, schedule: Q01DX009 (ip), vehicle: olive oil, sesame oil, peanut oil, higher = longer survival) is reported as 94 % of control, the T/C (endpoint: median survival time, dose: 100.0 mg/kg/injection, schedule: Q01DX009 (ip), vehicle: olive oil, sesame oil, peanut oil, higher = longer survival) is reported as 91 % of control and the T/C (endpoint: median survival time, dose: 200.0 mg/kg/injection, schedule: Q01DX009 (ip), vehicle: olive oil, sesame oil, peanut oil, higher = longer survival) is reported as 87 % of control.

For `CCCCN(C)N=Nc1ccc(CCC(=O)OCC)cc1`, the T/C (endpoint: median tumor weight (est.), dose: 72.0 mg/kg/injection, schedule: Q01DX009 (ip), vehicle: saline with Tween-80, higher = larger tumour) was 107 % of control, the T/C (endpoint: median tumor weight (est.), dose: 145.0 mg/kg/injection, schedule: Q01DX009 (ip), vehicle: saline with Tween-80, higher = larger tumour) was 95 % of control and the T/C (endpoint: median tumor weight (est.), dose: 290.0 mg/kg/injection, schedule: Q01DX009 (ip), vehicle: saline with Tween-80, higher = larger tumour) was 61 % of control.
